Source: patent US12533310B2, “Fragrance or flavor composition” (Takasago International Corporation, priority 2019, dated 2026)

What was measured:
[1] = tested on: cells not engineered to express the olfactory receptors; test: Mock test of the luciferase reporter gene assay; type: cell-based, human
Experimental: (§1) Each human olfactory receptor gene expression vector (0.05 μg), RTP1S vector (0.01 μg), firefly luciferase vector pGL4.29 containing a cAMP response element promoter (Promega, 0.01 μg) and Renilla luciferase vector pGL4.74 containing a thymidine kinase promoter (Promega, 0.005 μg) were dissolved in 10 μL of Opti-MEMI (gibco) to give a gene solution (for one well). HEK293T cells were seeded in 100 μL volumes into 96-well plates (Biocoat, Corning) at a cell density reaching confluence after 24 hours, and the gene solutions were added to the respective wells to cause gene transfer into the cells by lipofection techniques in accordance with the usage of Lipofectamine 3000, followed by culture at 37° C. under a 5% carbon dioxide atmosphere for 24 hours.
(§2) After removal of the culture solutions, an odorous substance serving as an analyte, which had been prepared at a given concentration with CD293 (gibco) medium (supplemented with […] L-glutamine), was added in 50 μL volumes to stimulate the cells for 3 hours, followed by luciferase activity measurement in accordance with the usage of a Dual-Luciferase Reporter Assay System (Promega). The response intensity of each olfactory receptor polypeptide was expressed as a fold increase value, which was determined by dividing the luciferase activity generated upon stimulation with the odorous substance by the luciferase activity generated in a test system not containing the odorous substance.
(§3) The cells engineered to express human olfactory receptors OR2C1 and OR4Q3 were used to measure the response of these receptors to various concentrations of 1-octen-3-one by the luciferase reporter gene assay.

[2] = target: T1, human olfactory receptor OR4Q3 (Homo sapiens, UniProt Q8NH05); test: Luciferase reporter gene assay, response of OR4Q3 to odorous substances; type: cell-based; conditions: various concentrations; cells stimulated 3 hours; FIGS. 2, 4, 5, 6
T1 construct: N-terminal 20 amino acid residues of bovine rhodopsin (Rho tag); expressed in transfected cells; host or cells: HEK293T
T1 sequence (Q8NH05 1-313): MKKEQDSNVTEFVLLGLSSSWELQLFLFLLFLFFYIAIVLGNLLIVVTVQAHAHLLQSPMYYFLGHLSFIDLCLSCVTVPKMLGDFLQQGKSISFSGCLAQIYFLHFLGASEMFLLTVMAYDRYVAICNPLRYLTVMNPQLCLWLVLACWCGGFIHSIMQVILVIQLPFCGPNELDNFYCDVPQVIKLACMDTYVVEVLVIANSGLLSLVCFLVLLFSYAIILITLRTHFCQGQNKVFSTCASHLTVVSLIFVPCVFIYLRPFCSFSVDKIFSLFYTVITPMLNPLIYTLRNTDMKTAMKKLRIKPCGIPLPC
Experimental: (§4) Human olfactory receptor genes were obtained by PCR cloning with Human Genomic DNA: Female (Promega) on the basis of their sequence information registered in GenBank. Into pME18S vectors, the N-terminal 20 amino acid residues of bovine rhodopsin were integrated and the resulting human olfactory receptor genes were integrated respectively downstream thereof to obtain human olfactory receptor gene expression vectors.
as §1, §2, §3
According to the same procedure as shown in Example 1, the cells engineered to express human olfactory receptors OR2C1 and OR4Q3 were used to measure the response of these receptors to various concentrations of 1,5-octadien-3-one by the luciferase reporter gene assay.
According to the same procedure as shown in Example 1, the cells engineered to express human olfactory receptor OR4Q3 were used to measure the response of this receptor to various concentrations of 1-octen-3-ol by the luciferase reporter gene assay. […]

[3] = target: T2, human olfactory receptor OR2C1 (Homo sapiens, UniProt O95371); test: Luciferase reporter gene assay, response of OR2C1 to odorous substances; type: cell-based; conditions: various concentrations; cells stimulated 3 hours; FIGS. 1 and 3
T2 construct: N-terminal 20 amino acid residues of bovine rhodopsin (Rho tag); expressed in transfected cells; host or cells: HEK293T
T2 sequence (O95371 1-312): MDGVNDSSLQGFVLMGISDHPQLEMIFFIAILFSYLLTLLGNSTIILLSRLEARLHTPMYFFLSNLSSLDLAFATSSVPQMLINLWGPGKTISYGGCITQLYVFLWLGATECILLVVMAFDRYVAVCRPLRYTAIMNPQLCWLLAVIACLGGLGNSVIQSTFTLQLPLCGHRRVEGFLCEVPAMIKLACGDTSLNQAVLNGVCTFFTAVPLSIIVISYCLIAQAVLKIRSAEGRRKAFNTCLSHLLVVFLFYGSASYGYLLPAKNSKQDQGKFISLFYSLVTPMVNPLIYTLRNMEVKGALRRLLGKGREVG
From the text: as §4, with “vectors. […]” for “vectors.”
as §2, with “substance. […]” for “substance.”

[4] = Sensory testing of offensive odor intensity, single offensive odors (Example 7); parameters: species or system human; conditions: for Offensive odor intensity 1,5-Octadien-3-ol: 1,5-octadien-3-ol diluted 100-fold with triethyl citrate; for Offensive odor intensity 1,5-Octadien-3-ol / Offensive odor intensity 1,5-Octadien-3-one / Offensive odor intensity 1-Octen-3-ol / Offensive odor intensity 1-Octen-3-one / Offensive odor intensity Trans-2-nonenal / Offensive odor intensity Trans-2-octenal: 10 μl, test substance 1 μl, odor alone set to 8, scale 0 to 10, mean of 10 panelists; for Offensive odor intensity 1,5-Octadien-3-one: 1,5-octadien-3-one diluted 1000-fold with triethyl citrate; for Offensive odor intensity 1-Octen-3-ol: 1-octen-3-ol diluted 100-fold with triethyl citrate; for Offensive odor intensity 1-Octen-3-one: 1-octen-3-one diluted 100-fold with triethyl citrate; for Offensive odor intensity Trans-2-nonenal: trans-2-nonenal diluted 1000-fold with triethyl citrate; for Offensive odor intensity Trans-2-octenal: trans-2-octenal diluted 1000-fold with triethyl citrate; for suppressive effect on offensive odors (each offensive odor of Example 7): summary in words for all six offensive odors
From the text: Test substances having inhibitory activity on receptor activity were confirmed for their ability to suppress offensive odors by sensory testing. As offensive odors, trans-2-nonenal diluted 1000-fold with triethyl citrate, trans-2-octenal diluted 1000-fold with triethyl citrate, 1-octen-3-one diluted 100-fold with triethyl citrate, 1,5-octadien-3-one diluted 1000-fold with triethyl citrate, 1-octen-3-ol diluted 100-fold with triethyl citrate, and 1,5-octadien-3-ol diluted 100-fold with triethyl citrate were each added dropwise separately in a volume of 10 μl and a test substance was added dropwise in a volume of 1 μl to a cotton ball, which was then enclosed in a plastic bottle (OZO-40, Takemoto Yohki Co., Ltd., Japan). Each bottle was allowed to stand for 1 hour at room temperature to fully volatilize odor molecules in the bottle. Sensory testing was made by 10 panelists assuming that the odor intensity was set to 8 for each offensive odor when added dropwise alone, whereby the offensive odor intensity when a test substance was mixed was evaluated between 0 and 10. The resulting numerical values were used to calculate their mean value.

[5] = Sensory testing of offensive odor intensity, model odors (Example 8); parameters: species or system human
Experimental: These fragrance compositions 1 to 48 were confirmed for their ability to suppress offensive odors by sensory testing. As offensive odors, the model age-related body odor, the model underarm odor and the model musty odor indicated in Tables 8 to 10 below were each diluted 100-fold and added dropwise separately in a volume of […] and fragrance compositions 1 to 48 were each added dropwise separately in a volume of 1 μl as a test substance to a cotton ball, which was then enclosed in a plastic bottle (OZO-40, Takemoto Yohki Co., Ltd., Japan). Each bottle was allowed to stand for 1 hour at room temperature to fully volatilize odor molecules in the bottle. Sensory testing was made by 10 panelists assuming that the odor intensity was set to 8 for each offensive odor when added dropwise alone, whereby the offensive odor intensity when a test substance was mixed was evaluated between 0 and 10. The resulting numerical values were used to calculate their mean value.

[6] = target: T3, OR2C1 (Homo sapiens, UniProt O95371); test: Suppressive effect of offensive odor-suppressing materials on the response of OR2C1; type: cell-based; conditions: for suppressive effect on the response of OR2C1 to 1-octen-3-one: mixed at various concentrations with 30 μM 1-octen-3-one, response without material set to 100, FIGS. 7 and 8; for suppressive effect on the response of OR2C1 to trans-2-nonenal: mixed at various concentrations with 60 μM trans-2-nonenal, FIGS. 9 and 10; for suppressing the response of OR2C1: odorous substance not stated
T3 construct: N-terminal 20 amino acid residues of bovine rhodopsin (Rho tag); expressed in transfected cells; host or cells: HEK293T
T3 sequence (O95371 1-312): T2 sequence (O95371 1-312)
Experimental: as §2
According to the same procedure as shown in Example 1, offensive odor-suppressing materials 2-methyl-4-(2,2,3-trimethylcyclopent-3-enyl)but-2-en-1-ol (also known as 2-methyl-4-(2,2,3-trimethyl-3-cyclopentenyl)-2-buten-1-ol) (Hindinol®) and 1-(2,2,6-trimethylcyclohexyl)hexan-3-ol (Dextramber®) were each mixed at various concentrations with 30 μM 1-octen-3-one, and the cells engineered to express OR2C1 were used to measure the response of this receptor to 1-octen-3-one. The ratio of the fold increase value obtained in the test using the offensive odor-suppressing materials was determined assuming that the fold increase value obtained in the test without mixing the offensive odor-suppressing materials was set to 100.
According to the same procedure as shown in Example 5, offensive odor-suppressing materials 2-methyl-4-(2,2,3-trimethylcyclopent-3-enyl)but-2-en-1-ol (Hindinol®) and 1-(2,2,6-trimethylcyclohexyl)hexan-3-ol (Dextramber®) were each mixed at various concentrations with 60 μM trans-2-nonenal, and the cells engineered to express OR2C1 were used to measure the response of this receptor to trans-2-nonenal.

[7] = target: T4, olfactory receptor OR2W1 (Homo sapiens, UniProt Q9Y3N9); conditions: background art; cited from earlier work
T4 sequence (Q9Y3N9 1-320): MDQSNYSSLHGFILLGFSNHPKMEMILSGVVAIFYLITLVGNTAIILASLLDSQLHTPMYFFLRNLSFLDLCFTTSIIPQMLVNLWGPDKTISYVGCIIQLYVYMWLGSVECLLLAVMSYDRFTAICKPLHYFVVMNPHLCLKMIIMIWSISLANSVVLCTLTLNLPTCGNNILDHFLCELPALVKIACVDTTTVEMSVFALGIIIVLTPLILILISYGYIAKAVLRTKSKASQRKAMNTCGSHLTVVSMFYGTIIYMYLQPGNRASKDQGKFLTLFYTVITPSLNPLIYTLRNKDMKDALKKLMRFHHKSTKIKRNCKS

| Compound | response in Mock test [1] | response of olfactory receptor OR4Q3 to the odorous substance (fold increase value) [2] | Offensive odor intensity 1,5-Octadien-3-ol [4] | Offensive odor intensity 1,5-Octadien-3-one [4] | Offensive odor intensity 1-Octen-3-ol [4] | Offensive odor intensity 1-Octen-3-one [4] | Offensive odor intensity Trans-2-nonenal [4] | Offensive odor intensity Trans-2-octenal [4] | other results |
| --- | --- | --- | --- | --- | --- | --- | --- | --- | --- |
| C=CC(O)CC=CCC (stereo not shown) [1,5-octadien-3-ol] | no response was observed in a Mock test | respond to 1,5-octadien-3-ol in a concentration-dependent manner |  |  |  |  |  |  |  |
| C=CC(=O)CC=CCC [1,5-octadien-3-one] | no response was observed in a Mock test | respond to 1,5-octadien-3-one in a concentration-dependent manner |  |  |  |  |  |  | response of olfactory receptor OR2C1 to the odorous substance (fold increase value) [3]: respond to 1,5-octadien-3-one in a concentration-dependent manner |
| C=CC(O)CCCCC (stereo not shown) [1-octen-3-ol] | no response was observed in a Mock test | respond to 1-octen-3-ol in a concentration-dependent manner |  |  |  |  |  |  |  |
| C=CC(=O)CCCCC [1-octen-3-one] | no response was observed in a Mock test | respond to 1-octen-3-one in a concentration-dependent manner |  |  |  |  |  |  | response of olfactory receptor OR2C1 to the odorous substance (fold increase value) [3]: respond to 1-octen-3-one in a concentration-dependent manner |
| O=C(OCc1ccccc1)c1ccccc1O [Benzyl salicylate, reference compound] |  |  | 6.5 | 7.8 | 7.0 | 7.5 | 7.9 | 7.5 |  |
| CCCC(O)CCC1C(C)CCCC1(C)C (stereo not shown) [Dextramber, 1-(2,2,6-trimethylcyclohexyl)hexan-3-ol] |  |  | 1.9 | 2.6 | 2.0 | 2.3 | 2.8 | 2.2 | suppressive effect on offensive odors (each offensive odor of Example 7) [4]: found to suppress each offensive odor; suppressive effect on offensive odors (each model odor of Example 8) ([5]; summary in words for the model odors): found to suppress each offensive odor; suppressive effect on the response of OR2C1 to 1-octen-3-one [6]: reducing the response of OR2C1 to 1-octen-3-one in a concentration-dependent manner; suppressive effect on the response of OR2C1 to trans-2-nonenal [6]: reducing the response of OR2C1 to trans-2-nonenal in a concentration-dependent manner; suppressing the response of OR2C1 [6]: suppressing the response of OR2C1 |
| CC(=CCC1CC=C(C)C1(C)C)CO (stereo not shown) [Hindinol, 2-methyl-4-(2,2,3-trimethylcyclopent-3-enyl)but-2-en-1-ol] |  |  |  |  |  |  |  |  | Offensive odor intensity Model age-related body odor ([5]; model odor of Table 8 diluted 100-fold, fragrance composition 1 μl, odor alone set to 8, scale 0 to 10, mean of 10 panelists): suppress the intensity of the model age-related body odor and the model underarm odor; Offensive odor intensity Model underarm odor ([5]; model odor of Table 9 diluted 100-fold, fragrance composition 1 μl, odor alone set to 8, scale 0 to 10, mean of 10 panelists): suppress the intensity of the model age-related body odor and the model underarm odor; suppressive effect on the response of OR2C1 to 1-octen-3-one [6]: reducing the response of OR2C1 to 1-octen-3-one in a concentration-dependent manner; suppressive effect on the response of OR2C1 to trans-2-nonenal [6]: reducing the response of OR2C1 to trans-2-nonenal in a concentration-dependent manner |
| O=C1CCCCCCCCCCCC(=O)OCCO1 [MUSK T, 1,4-dioxacycloheptadecane-5,17-dione] |  |  | 3.0 | 3.2 | 3.2 | 2.8 | 2.9 | 2.9 | suppressive effect on offensive odors (each offensive odor of Example 7) [4]: found to suppress each offensive odor; suppressing the response of OR2C1 [6]: suppressing the response of OR2C1 |
| CCCCCC(=O)O [hexanoic acid] |  |  |  |  |  |  |  |  | response of olfactory receptor OR2W1 [7]: responds to hexanoic acid |
